ChEMBL document CHEMBL2010784 (ACS Med Chem Lett, 2011)
The source made the active and inactive calls. The calls are words filed in the database; no cut-off is given here.

Legend:
[1] = test system: Human immunodeficiency virus 1; test: Antiviral activity against HIV-1 infected in human MT-4 cells assessed as inhibition of viral-induced cytopathogenicity after 4 days by MTT assay; assay type: functional, organism-based; conditions: Human immunodeficiency virus 1, MT4, 96 h
MT4 = test: (§1) Cytotoxicity against human MT4 cells after 4 days by MTT assay; assay type: cell-based; conditions: mt4, 96 h
[2] = Selectivity index, ratio of CC50 for human MT-4 cells to EC50 for HIV-1; assay type: toxicity, cell-based, MT4; conditions: read-out: Ratio CC50/EC50
Human alphaherpesvirus 1 [3] = test: Antiviral activity against HSV-1 KOS infected in HEL cells assessed as inhibition of viral-induced cytopathogenicity; assay type: functional, organism-based; conditions: Human alphaherpesvirus 1, KOS
Human alphaherpesvirus 2 = test: Antiviral activity against HSV-2 G infected in HEL cells assessed as inhibition of viral-induced cytopathogenicity; assay type: functional, organism-based; conditions: Human alphaherpesvirus 2, strain G
Human alphaherpesvirus 1 [4] = test: Antiviral activity against ACV-resistant TK-deficient HSV-1 KOS infected in HEL cells assessed as inhibition of viral-induced cytopathogenicity; assay type: functional, organism-based; conditions: Human alphaherpesvirus 1, KOS
[5] = Cytotoxicity against human HEL cells assessed as changes in cell morphology by microscopy; assay type: cell-based
[6] = Selectivity index, ratio of MCC for human HEL cells to EC50 for HSV-1 KOS
[7] = Selectivity index, ratio of MCC for human HEL cells to EC50 for HSV-2 G
Human respirovirus 3 = test: Antiviral activity against Parainfluenza-3 virus infected in african green monkey Vero cells assessed as inhibition of viral-induced cytopathogenicity; assay type: functional, organism-based
[8] = test system: Mammalian orthoreovirus 1; test: Antiviral activity against Reovirus-1 infected in african green monkey Vero cells assessed as inhibition of viral-induced cytopathogenicity; assay type: functional, organism-based
Sindbis virus = test: Antiviral activity against Sindbis virus infected in african green monkey Vero cells assessed as inhibition of viral-induced cytopathogenicity; assay type: functional, organism-based
Coxsackievirus B4 = test: Antiviral activity against Coxsackie B4 virus infected in african green monkey Vero cells assessed as inhibition of viral-induced cytopathogenicity; assay type: functional, organism-based
Punta Toro virus = test: Antiviral activity against Punta Toro virus infected in african green monkey Vero cells assessed as inhibition of viral-induced cytopathogenicity; assay type: functional, organism-based
[9] = test system: Vesicular stomatitis virus; test: Antiviral activity against VSV infected in human HeLa cells assessed as inhibition of viral-induced cytopathogenicity; assay type: functional, organism-based
[10] = test system: Respiratory syncytial virus; test: Antiviral activity against RSV infected in human HeLa cells assessed as inhibition of viral-induced cytopathogenicity; assay type: functional, organism-based
Feline coronavirus = test: Antiviral activity against Feline coronavirus infected in CrFK cells assessed as inhibition of viral-induced cytopathogenicity; assay type: functional, organism-based
Felid alphaherpesvirus 1 = test: Antiviral activity against Feline herpes virus infected in CrFK cells assessed as inhibition of viral-induced cytopathogenicity; assay type: functional, organism-based
Influenza A virus [11] = test: Antiviral activity against Influenza A virus H1N1 infected in MDCK cells assessed as inhibition of viral-induced cytopathogenicity; assay type: functional, organism-based
Influenza A virus [12] = test: Antiviral activity against Influenza A virus H3N2 infected in MDCK cells assessed as inhibition of viral-induced cytopathogenicity; assay type: functional, organism-based
Influenza B virus = test: Antiviral activity against influenza B virus infected in MDCK cells assessed as inhibition of viral-induced cytopathogenicity; assay type: functional, organism-based
[13] = as §1; assay type: cell-based; conditions: MT4 cells

SMILES	EC50 [1]	CC50 (MT4)	selectivity ratio [2]	EC50 (Human alphaherpesvirus 1 [3])	EC50 (Human alphaherpesvirus 2)	EC50 (Human alphaherpesvirus 1 [4])	MCC [5]	Activity (Human respirovirus 3)	Activity [8]	Activity (Sindbis virus)	Activity (Coxsackievirus B4)	Activity (Punta Toro virus)	Activity [9]	Activity [10]	Activity (Feline coronavirus)	Activity (Felid alphaherpesvirus 1)	Activity (Influenza A virus [11])	Activity (Influenza A virus [12])	Activity (Influenza B virus)	also measured
C#C[C@]1(CO)S[C@@H](n2cnc3c(=O)[nH]c(N)nc32)C[C@@H]1O	5.5 nM	> 100000 nM	> 18200	3000 nM	1500 nM	4500 nM	> 100 µM	inactive	inactive	inactive	inactive	inactive	inactive	inactive	inactive	inactive	inactive	inactive	inactive	Selectivity Index [6]: >50; Selectivity Index [7]: >50
C#C[C@]1(CO)O[C@@H](n2cnc3c(N)ncnc32)C[C@@H]1O	9.8 nM		1630					inactive	inactive	inactive	inactive	inactive	inactive	inactive	inactive	inactive	inactive	inactive	inactive	CC50 at 96 h [13]: 16000 nM
C#C[C@]1(CO)S[C@@H](n2ccc(N)nc2=O)C[C@@H]1O	11 nM	6000 nM	545	2000 nM	1500 nM	2500 nM	> 100 µM	inactive	inactive	inactive	inactive	inactive	inactive	inactive	inactive	inactive	inactive	inactive	inactive	Selectivity Index [6]: >50; Selectivity Index [7]: >50
C#C[C@]1(CO)S[C@@H](n2cnc3c(N)ncnc32)C[C@@H]1O	87 nM	> 20000 nM	> 230	7000 nM	4000 nM	8000 nM	> 100 µM	inactive	inactive	inactive	inactive	inactive	inactive	inactive	inactive	inactive	inactive	inactive	inactive	
C#C[C@]1(CO)O[C@@H](n2cnc3c(=O)[nH]c(N)nc32)C[C@@H]1O	1.5 nM		933					inactive	inactive	inactive	inactive	inactive	inactive	inactive	inactive	inactive	inactive	inactive	inactive	CC50 at 96 h [13]: 1400 nM
Nc1nc2c(ncn2COC(CO)CO)c(=O)[nH]1 [GANCICLOVIR]							> 100 µM													
C#C[C@]1(CO)O[C@@H](n2ccc(N)nc2=O)C[C@@H]1O	4.8 nM							inactive	inactive	inactive	inactive	inactive	inactive	inactive	inactive	inactive				
